The compounds below were run against T1, Androgen Receptor (AR) (Homo sapiens, UniProt P10275, T878A) (assay: LNCaP Androgen Receptor Down-regulation Cell Assay (immunofluorescence end point)). Conditions: LNCaP prostate carcinoma cells, compound incubation 20-22 hours, 50% reduction of the AR signal.
T1 construct: cell based immuno-fluorescence assay using the LNCaP prostate epithelial cell line; endogenous in cells; host or cells: LNCaP clone FGC (ATCC CRL-1740)
T1 sequence (P10275 1-920 T878A): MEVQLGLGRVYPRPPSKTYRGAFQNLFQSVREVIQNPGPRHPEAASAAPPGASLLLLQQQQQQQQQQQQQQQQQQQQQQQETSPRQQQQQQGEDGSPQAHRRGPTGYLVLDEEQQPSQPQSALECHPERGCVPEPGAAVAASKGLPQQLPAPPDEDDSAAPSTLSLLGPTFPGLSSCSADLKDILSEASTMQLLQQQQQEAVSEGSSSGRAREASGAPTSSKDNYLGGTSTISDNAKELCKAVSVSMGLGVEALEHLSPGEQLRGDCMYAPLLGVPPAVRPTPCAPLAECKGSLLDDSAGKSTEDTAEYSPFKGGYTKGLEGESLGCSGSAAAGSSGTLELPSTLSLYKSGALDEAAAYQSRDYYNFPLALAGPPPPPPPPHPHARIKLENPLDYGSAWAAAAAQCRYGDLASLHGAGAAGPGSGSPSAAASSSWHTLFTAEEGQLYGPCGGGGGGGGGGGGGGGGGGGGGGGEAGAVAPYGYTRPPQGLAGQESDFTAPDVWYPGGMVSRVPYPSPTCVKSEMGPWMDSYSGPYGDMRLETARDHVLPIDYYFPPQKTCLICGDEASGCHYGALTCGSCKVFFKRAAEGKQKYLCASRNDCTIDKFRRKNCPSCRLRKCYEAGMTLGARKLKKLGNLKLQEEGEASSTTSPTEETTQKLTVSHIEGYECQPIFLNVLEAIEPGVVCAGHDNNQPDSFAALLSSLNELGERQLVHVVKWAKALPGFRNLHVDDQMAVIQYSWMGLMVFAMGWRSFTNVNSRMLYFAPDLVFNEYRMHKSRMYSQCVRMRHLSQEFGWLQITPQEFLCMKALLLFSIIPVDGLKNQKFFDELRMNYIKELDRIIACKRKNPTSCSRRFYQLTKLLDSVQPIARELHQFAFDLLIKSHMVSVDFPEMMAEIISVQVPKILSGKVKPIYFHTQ
Assay type: cell-based
Summary of the method: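 LNCaP cells in medium with 5% charcoal-stripped FBS were plated overnight, then treated with a compound dilution series for 20-22 h at 37° C. After fixation, permeabilisation and immunostaining, AR-associated green fluorescence was quantified by laser-scanning microplate cytometry; AR down-regulation expressed as IC50 from fitted dose-response curves.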

For `CS(=O)(=O)Oc1cccc(CN2CCN(c3ccc4nnc(C(F)(F)F)n4n3)CC2)c1` [Example 151, [3-[[4-[3-(trifluoromethyl)-[1,2,4]triazolo[4,3-b]pyridazin-6-yl]piperazin-1-yl]methyl]phenyl]methanesulfonate], the IC50 was 3.1 µM.

Same assay, conditions: LNCaP prostate carcinoma cells, compound incubation 20-22 hours, 50% reduction of the AR signal; read-out: Androgen Receptor Down-regulation Assay (a) IC50/μM

Going from `CN(C)CCOc1ccc(CN2CCN(c3ccc4nnc(C(F)(F)F)n4n3)CC2)cc1` [Example 140, N,N-dimethyl-2-[4-[[4-[3-(trifluoromethyl)-[1,2,4]triazolo[4,3-b]pyridazin-6-yl]piperazin-1-yl]methyl]phenoxy]ethanamine] to `N#CCOc1ccc(CN2CCN(c3ccc4nnc(C(F)(F)F)n4n3)CC2)cc1` [Example 154, 2-[4-[[4-[3-(trifluoromethyl)-[1,2,4]triazolo[4,3-b]pyridazin-6-yl]piperazin-1-yl]methyl]phenoxy]acetonitrile], the DC50 falls from 7.1 µM to 1.6 µM (4.4-fold).

Compared with `COc1ccc(CN2CCN(c3ccc4nnc(C(F)(F)F)n4n3)CC2)cn1` [Example 142, 6-[4-[(6-methoxypyridin-3-yl)methyl]piperazin-1-yl]-3-(trifluoromethyl)-[1,2,4]triazolo[4,3-b]pyridazine], `CCOc1ccc(CN2CCN(c3ccc4nnc(C(F)(F)F)n4n3)CC2)cn1` [Example 147, 6-[4-[(6-ethoxypyridin-3-yl)methyl]piperazin-1-yl]-3-(trifluoromethyl)-[1,2,4]triazolo[4,3-b]pyridazine] is 2-fold lower in DC50: 5.1 µM for the first, 2.5 µM for the second.

`FC(F)(F)c1nnc2ccc(N3CCN(Cc4ccc(N5CCOCC5)nc4)CC3)nn12` [Example 143, 6-[4-[(6-morpholin-4-ylpyridin-3-yl)methyl]piperazin-1-yl]-3-(trifluoromethyl)-[1,2,4]triazolo[4,3-b]pyridazine] and `FC(F)(F)c1nnc2ccc(N3CCN(Cc4ccc(N5CCOCC5)cc4)CC3)nn12` [Example 160, 6-[4-[(4-morpholin-4-ylphenyl)methyl]piperazin-1-yl]-3-(trifluoromethyl)-[1,2,4]triazolo[4,3-b]pyridazine] are within 1.5-fold of each other in DC50: 8.8 µM for the first, 6.6 µM for the second.

`FC(F)(F)c1nnc2ccc(N3CCN(Cc4ccc(Oc5ccccc5)nc4)CC3)nn12` [Example 144, 6-[4-[(6-phenoxypyridin-3-yl)methyl]piperazin-1-yl]-3-(trifluoromethyl)-[1,2,4]triazolo[4,3-b]pyridazine] and `CC(C)Oc1ccc(CN2CCN(c3ccc4nnc(C(F)(F)F)n4n3)CC2)cn1` [Example 148, 6-[4-[(6-propan-2-yloxypyridin-3-yl)methyl]piperazin-1-yl]-3-(trifluoromethyl)-[1,2,4]triazolo[4,3-b]pyridazine] are within 1.5-fold of each other in DC50: 4.9 µM for the first, 3.4 µM for the second.

First: OCc1cccc(CN2CCN(c3ccc4nnc(C(F)(F)F)n4n3)CC2)c1 [Example 149, [3-[[4-[3-(trifluoromethyl)-[1,2,4]triazolo[4,3-b]pyridazin-6-yl]piperazin-1-yl]methyl]phenyl]methanol]
Second: FC(F)Oc1cccc(CN2CCN(c3ccc4nnc(C(F)(F)F)n4n3)CC2)c1 [Example 162, 6-[4-[[3-(difluoromethoxy)phenyl]methyl]piperazin-1-yl]-3-(trifluoromethyl)-[1,2,4]triazolo[4,3-b]pyridazine]
The DC50 of the first is 7.9-fold higher: 7.9 µM for the first, 1 µM for the second.

Going from `CS(=O)(=O)Nc1cccc(CN2CCN(c3ccc4nnc(C(F)(F)F)n4n3)CC2)c1` [Example 150, N-[3-[[4-[3-(trifluoromethyl)-[1,2,4]triazolo[4,3-b]pyridazin-6-yl]piperazin-1-yl]methyl]phenyl]methanesulfonamide] to `CS(=O)(=O)c1cccc(CN2CCCN(c3ccc4nnc(C(F)(F)F)n4n3)CC2)c1` [Example 165, 6-[4-[(3-methylsulfonylphenyl)methyl]-1,4-diazepan-1-yl]-3-(trifluoromethyl)-[1,2,4]triazolo[4,3-b]pyridazine], the DC50 falls from 7.6 µM to 1.7 µM (4.5-fold).

Going from `CS(=O)(=O)Oc1ccc(CN2CCN(c3ccc4nnc(C(F)(F)F)n4n3)CC2)cc1` [Example 152, [4-[[4-[3-(trifluoromethyl)-[1,2,4]triazolo[4,3-b]pyridazin-6-yl]piperazin-1-yl]methyl]phenyl]methanesulfonate] to `FC(F)Oc1ccc(CN2CCN(c3ccc4nnc(C(F)(F)F)n4n3)CC2)cc1` [Example 161, 6-[4-[[4-(difluoromethoxy)phenyl]methyl]piperazin-1-yl]-3-(trifluoromethyl)-[1,2,4]triazolo[4,3-b]pyridazine], the DC50 falls from 6.7 µM to 1.4 µM (4.8-fold).

Going from `NC(=O)COc1ccc(CN2CCN(c3ccc4nnc(C(F)(F)F)n4n3)CC2)cc1` [Example 153, 2-[4-[[4-[3-(trifluoromethyl)-[1,2,4]triazolo[4,3-b]pyridazin-6-yl]piperazin-1-yl]methyl]phenoxy]acetamide] to `CCc1ccc(CN2CCN(c3ccc4nnc(C(F)(F)F)n4n3)CC2)cc1` [Example 159, 6-[4-[(4-ethylphenyl)methyl]piperazin-1-yl]-3-(trifluoromethyl)-[1,2,4]triazolo[4,3-b]pyridazine], the DC50 falls from 7.9 µM to 1.4 µM (5.6-fold).

`CCCCOc1cccc(CN2CCN(c3ccc4nnc(C(F)(F)F)n4n3)CC2)c1` [Example 157, 6-[4-[(3-butoxyphenyl)methyl]piperazin-1-yl]-3-(trifluoromethyl)-[1,2,4]triazolo[4,3-b]pyridazine] and `CCCc1ccc(CN2CCN(c3ccc4nnc(C(F)(F)F)n4n3)CC2)cc1` [Example 158, 6-[4-[(4-propylphenyl)methyl]piperazin-1-yl]-3-(trifluoromethyl)-[1,2,4]triazolo[4,3-b]pyridazine] are within 1.5-fold of each other in DC50: 2.4 µM for the first, 3 µM for the second.

First: CCOC(=O)/C=C/c1ccc(CN2CCN(c3ccc4nnc(C(F)(F)F)n4n3)CC2)cc1 [Example 163, ethyl (E)-3-[4-[[4-[3-(trifluoromethyl)-[1,2,4]triazolo[4,3-b]pyridazin-6-yl]piperazin-1-yl]methyl]phenyl]prop-2-enoate]
Second: N#Cc1ccc(CN2CCCN(c3ccc4nnc(C(F)(F)F)n4n3)CC2)cc1 [Example 170, 4-[[4-[3-(trifluoromethyl)-[1,2,4]triazolo[4,3-b]pyridazin-6-yl]-1,4-diazepan-1-yl]methyl]benzonitrile]
The DC50 of the first is 5.9-fold higher: 3.6 µM for the first, 0.61 µM for the second.

Going from `CS(=O)(=O)c1ccccc1CN1CCCN(c2ccc3nnc(C(F)(F)F)n3n2)CC1` [Example 164, 6-[4-[(2-methylsulfonylphenyl)methyl]-1,4-diazepan-1-yl]-3-(trifluoromethyl)-[1,2,4]triazolo[4,3-b]pyridazine] to `Fc1ccccc1CN1CCCN(c2ccc3nnc(C(F)(F)F)n3n2)CC1` [Example 169, 6-[4-[(2-fluorophenyl)methyl]-1,4-diazepan-1-yl]-3-(trifluoromethyl)-[1,2,4]triazolo[4,3-b]pyridazine], the DC50 falls from 1.7 µM to 0.92 µM (1.8-fold).

Compared with `COc1ccccc1CN1CCCN(c2ccc3nnc(C(F)(F)F)n3n2)CC1` [Example 167, 6-[4-[(2-methoxyphenyl)methyl]-1,4-diazepan-1-yl]-3-(trifluoromethyl)-[1,2,4]triazolo[4,3-b]pyridazine], `N#Cc1cccc(CN2CCCN(c3ccc4nnc(C(F)(F)F)n4n3)CC2)c1` [Example 171, 3-[[4-[3-(trifluoromethyl)-[1,2,4]triazolo[4,3-b]pyridazin-6-yl]-1,4-diazepan-1-yl]methyl]benzonitrile] is 3.9-fold lower in DC50: 2.4 µM for the first, 0.62 µM for the second.

`FC(F)(F)c1ccc(CN2CCCN(c3ccc4nnc(C(F)(F)F)n4n3)CC2)cc1` [Example 168, 3-(trifluoromethyl)-6-[4-[[4-(trifluoromethyl)phenyl]methyl]-1,4-diazepan-1-yl]-[1,2,4]triazolo[4,3-b]pyridazine] gave a DC50 of 1.6 µM.
